Source: US20040142899A1, “Compositions and methods for enhanced biostability and altered biodistribution of oligonucleotides in mammals” (ISIS Pharmaceuticals, Inc., priority 1990, published 2004)

Assays:
[1] = Nuclease stability in HeLa cytoplasmic/nuclear extracts; format: in vitro ADME; conditions: cell extract diluted 1.4 times; oligonucleotide 20 μM
Experimental: The nuclease stability of Oligomer 51 and the conjugate were tested against Oligomer 50 in HeLa cytoplasmic/nuclear extracts. The cell extract was diluted 1.4 times. The final concentration of oligonucleotide was 20 μM. The half lives of the oligonucleotides were as follows: Oligomer 50, 1.0 hrs.; Oligomer 51, 3.5 hrs.; and Conjugate 1, 3.6 hrs.

[2] = system: ICAM-1 protein; conditions: LPS-induced livers, HRP-conjugated secondary antibodies
[3] = system: mouse ICAM-1 mRNA; experiment: ICAM-1 mRNA levels in LPS-treated mice (Northern analysis); format: in vivo; conditions: liver; 30 mg/kg i.v. 24 and 2 hours prior to LPS
Experimental: Mice were treated with oligonucleotides and examined as follows. […] Then, to induce ICAM-1 expression, bacterial lipopolysaccharide (LPS) was injected into the mice. After 2 hours, the mice were sacrificed, and particular organs, or specific portion thereof, were removed for further study. RNA was prepared from isolated, homogenized tissues essentially according to the guanidinium/CsCl purification method of Chirgwin et al. (Biochemistry, […], 18, 5294), electrophoresed and transferred to nylon membranes for hybridization studies (Northern analysis) according to methods well known in the art. In order to detect mouse ICAM-1 mRNA, a radiolabelled probe was prepared by random oligonucleotide-primed synthesis using a mouse ICAM-1 clone as a template. The blots were stripped and reprobed with a ^32P-labeled glyceraldehyde 3-phosphate dehydrogenase (G3PDH) probe (Clontech Laboratories, Inc., Palo Alto, Calif.) in order to confirm equal loading of RNA and to allow the levels of ICAM-1 transcripts to be normalized with regard to the G3PDH signals. Hybridizing bands were visualized by exposure to X-OMAT AR film and quantitated using a PHOSPHORIMAGER™ essentially according to the manufacturer's instructions (Molecular Dynamics, Sunnyvale, Calif.).

[4] = system: complementary RNA; experiment: Melting analysis (Tm) of 5-LO antisense sequence oligomers against complementary RNA; format: binding; conditions: 4 μM each strand, 100 mM NaCl, 10 mM Phosphate, 0.1 mM EDTA, pH 7.0
Experimental: (§1) The relative ability of oligonucleotides to bind to their complementary strand is compared by determining the melting temperature of the hybridization complex of the oligonucleotide and its complementary strand. The melting temperature (Tm), a characteristic physical property of double helices, denotes the temperature in degrees centigrade at which 50% helical versus coil (un-hybridized) forms are present. Tm is measured by using the UV spectrum to determine the formation and breakdown (melting) of hybridization. Base stacking, which occurs during hybridization, is accompanied by a reduction in UV absorption (hypochromicity). Consequently, […]. The higher the Tm, the greater the strength of the binding of the strands. Non-Watson-Crick base pairing has a strong destabilizing effect on the Tm. Consequently, absolute fidelity of base pairing is necessary to have optimal binding of an antisense oligonucleotide to its targeted RNA.
(§2) The test oligonucleotides (either the phosphodiester, phosphorothioate, cholic acid conjugated phosphodiester, cholic acid conjugated phosphorothioate or 5′-aminolink intermediate phosphodiester or phosphorothioate oligonucleotides of the invention or otherwise) and either the complementary DNA or RNA oligonucleotides were incubated at a standard concentration of 4 μM for each oligonucleotide in buffer (100 mM NaCl, 10 mM Na-phosphate, pH 7.0, 0.1 mM EDTA). Samples were heated to 90 degrees C. and the initial absorbance taken using a Guilford Response II spectro-photometer (Corning, Inc., Corning, N.Y.). Samples were then slowly cooled to 15° C. and then the change in absorbance at 260 nm was monitored during the heat denaturation procedure. The temperature was elevated 1 degree/absorbance reading and the denaturation profile analyzed by taking the 1st derivative of the melting curve. Data was also analyzed using a two-state linear regression analysis to determine the Tm's. The results of these tests are shown in Table 3 as are the HPLC retention times of certain of the test compounds.

[5] = system: complementary DNA; experiment: Melting analysis (Tm) of 5-LO antisense sequence oligomers against complementary DNA; format: binding; conditions: 4 μM each strand, 100 mM NaCl, 10 mM Phosphate, 0.1 mM EDTA, pH 7.0
Experimental: as §1, §2

[6] = system: P-glycoprotein; experiment: P-glycoprotein expression by Western blotting in MDR 3T3 cells; format: cell-based, human; conditions: maximum only after 72 hours exposure
Experimental: Transfected MDR NIH 3T3 cells were grown and treated with oligonucleotides as described in Example (9)(B). In order to measure P-glycoprotein expression by Western blotting, cells were seeded in 60 mm dishes at 1.2×10^6 per dish and incubated for 24 hours in serum containing medium. The cells were treated with the oligomers for various times in serum free medium as described above. Cells were then extracted in lysis buffer (20 mM Tris, pH 7.5, 2 mM EDTA, 500 mM EGTA, 2 mM PMSF, 1 mM DTT, aprotonin (10 ug/ml), 0.5% Triton-X) and sonicated briefly. The lysate was spun in a microfuge tube for 20 minutes at 4° C. and the resulting supernatant was checked for protein content. Equal amounts of protein (usually 20 ug) were mixed with SDS sample buffer and boiled. Protein samples were separated by 8% SDS PAGE and the resolved proteins were electrophoretically transferred onto polyvinyllidene fluoride membranes (Millipore, Bedford, Mass.). The membranes were blocked (with 3% BSA, 2% non fat dry milk in PBS) and then treated with 2 ug/ml C219 anti-P-glycoprotein antibody (Signet, Dedham, Mass.). After washing three times with 0.1% Tween 20, the membranes were incubated with rabbit anti-mouse antibody (Cappel, Durham, N.C.). Immunoreactive proteins were visualized either by ECL (Enhanced Chemiluminescence, Amersham, Arlington Heights, Ill.) or with ^125I secondary antibodies.

[7] = system: MDR1 mRNA; experiment: MDR1 mRNA expression by Northern blotting in MDR 3T3 cells; format: cell-based, human; conditions: for MDR1 mRNA Level (arbitrary units) / % Control (MDR1 mRNA): oligonucleotide 1 μm, 24 hours, with Lipofectin; for MDR1 mRNA Level (arbitrary units): serum free medium; for % Control (MDR1 mRNA): control = untreated cells
Experimental: NIH 3T3 cells transfected with a plasmid containing the human MDR1 gene (pSK1 MDR) have been previously described (Kane et al., Gene, 1989, 84, 439). These cells have proven to be useful models for the study of multi-drug resistance phenomena. Cells were grown in DMEM media containing 10% fetal bovine serum (FBS) and 60 ng/ml colchicine in an atmosphere of 95% air, 5% CO2.
Cells were grown in […] flasks.
To measure MDR1 mRNA expression by Northern blotting, total cellular RNA was isolated by lysis in 4M guanidium isothiocyanate followed by a cesium chloride gradient, and the RNA was resolved on 1.2% agarose gels containing 1.2% formaldehyde and transferred to nitrocellulose membranes (Dean et al., J. Biol. Chem., 1994, 269, 16416). The blots were hybridized with a ^32P radiolabeled human MDR1 cDNA probe. The MDR1 cDNA probe was isolated by performing a polymerase chain reaction on the pSK1 MDR plasmid, as described previously (Alahari et al., Nucl. Acids Res., 1993, 21, 4079). The following oligonucleotide primers were used for PCR: […]
The resulting fragment was checked on an agarose gel and was radiolabeled with ^32P-dCTP using a commercially available random primer labeling kit (Amersham, Arlington Heights, Ill.) according to the manufacturer's instructions. The filters were hybridized overnight in hybridization buffer (25 mM KPO4, pH 7.4; 5×SSC; 5×Denhardt's solution, 100 ug/ml Salmon sperm DNA and 50% formamide) (Alahari et al., Nucl. Acids Res., 1993, 21, 4079). This was followed by two washes with 1×SSC, 0.1% SDS and two washes with 0.25×SSC, 0.1% SDS. Hybridizing bands were visualized by exposure to X-OMAT AR film and quantitated using a PhosphorImager™ (Molecular Dynamics, Sunnyvale, Calif.). To confirm equal loading of RNA, the blots were stripped and reprobed with a ^32P-labeled beta-actin probe (Clontech, Palo Alto, Calif).
In initial experiments, the MDR 3T3 cells were exposed to 1.0 μm concentrations of several different antisense oligonucleotides, or control oligonucleotides, in the presence of 20 ug/ml LIPOFECTIN® for 24 hours. […] NIH 3T3 cells transfected with pSK1 MDR plasmid were grown to 90% confluence and treated with oligonucleotide (1 μm) for 24 hours in the presence of Lipofectin® in serum free medium. Total RNA was isolated and fractionated on agarose formaldehyde gels and blotted onto nitrocellulose membranes. These membranes were probed with a ^32P radiolabeled 1.0 kb MDR1 cDNA, and then stripped and reprobed with a ^32P radiolabeled beta-actin cDNA probe to confirm equal loading of RNA, allowing the levels of MDR1 transcripts to be normalized with regard to the beta-actin bands. Transcript levels were quantitated using a PHOSPHORIMAGER™ (Molecular Dynamics, Sunnyvale, Calif.); the values are expressed in arbitrary units (the beta-actin transcripts were essentially constant).

## 5′-GCC-TTT-CGC-GAC-CCA-ACA-CU [Oligomer 50, reference compound]
[1]
  half life: 1.0 h

## 5′-GCC-TTT-CGC-GAC-CCA-ACA-CU* [Oligomer 51]
[1]
  half life: 3.5 h

## 5′-GCG-TTG-CTC-TTC-TTC-TTG-CG [ISIS 13293, reference compound]
[2]
  ICAM-1 staining of liver sections: appear quite dark
[3]
  reduction of hepatic ICAM-1 mRNA relative to LPS without oligonucleotide: no apparent effect

## 5′-TCC-AGG-TGT-CCG-CAT-C-3′ (antisense TCCAGGTGTCCGCATC; 5' cholic acid conjugate, chemistry not fully specified) [Oligomer 36, 5′-terminus cholic acid conjugate, phosphodiester]
[4]
  Tm RNA: 62.4 degrees centigrade
[5]
  Tm DNA: 63.4 degrees centigrade

## 5′-TCC-AGG-TGT-CCG-CAT-C-3′ (antisense TCCAGGTGTCCGCATC; phosphodiester, phosphorothioate or 5'-aminolink variants, which one is not given here, further chemistry not given here) [Oligomer 32, parent 5-LO antisense compound, normal phosphodiester linkages, reference compound]
[4]; listed as 32
  Tm RNA: 62.0 degrees centigrade
[5]; listed as 32
  Tm DNA: 62.6 degrees centigrade

## 5′-TCC-AGG-TGT-CCG-CAT-C-3′ (antisense TCCAGGTGTCCGCATC; phosphodiester, phosphorothioate or 5'-aminolink variants, which one is not given here, further chemistry not given here) [Oligomer 33, reference compound]
[4]; listed as 33
  Tm RNA: 54.9 degrees centigrade
[5]; listed as 33
  Tm DNA: 55.4 degrees centigrade

## 5′-TCC-AGG-TGT-CCG-CAT-C-3′ (antisense TCCAGGTGTCCGCATC; phosphodiester, phosphorothioate or 5'-aminolink variants, which one is not given here, further chemistry not given here) [Oligomer 37]
[4]; listed as 37
  Tm RNA: 55.8 degrees centigrade
[5]; listed as 37
  Tm DNA: 56.3 degrees centigrade

## CGG-TCC-CCT-TCA-AGA-TCC-AT (CGGTCCCCTTCAAGATCCAT; all phosphorothioate, sugars by position and methylation of C not given here) [ISIS 10440]
[6]
  reduction of P-glycoprotein (Western assays): about 50%

## CTC-CCG-CAC-ATC-TCC-GCG-CC (CTCCCGCACATCTCCGCGCC; all phosphorothioate, sugars by position and methylation of C not given here) [ISIS 10222, reference compound]
[7]
  MDR1 mRNA Level (arbitrary units): 406,522 arbitrary units
  % Control (MDR1 mRNA): 86%

## GAG-CCG-CTA-CTC-GAA-TGA-GC (GAGCCGCTACTCGAATGAGC; all phosphorothioate, sugars by position and methylation of C not given here) [ISIS 5990]
[7]
  MDR1 mRNA Level (arbitrary units): 443,478 arbitrary units
  % Control (MDR1 mRNA): 94%

## GTT-CAC-TGG-CGC-TTT-GTT-CC (GTTCACTGGCGCTTTGTTCC; all phosphorothioate, sugars by position and methylation of C not given here) [ISIS 5998]
[7]; parent phosphorothioate, Example 9(B)
  effect on MDR1 mRNA expression: unpromising effect on MDR1 mRNA expression
